According to the Biogen ADME set (Fang et al. 2023):
Values after ≈ are worked out from the molar mass of the structure shown.

Details: for aqueous solubility: pH 6.8

| SMILES | MDR1-MDCK efflux ratio | intrinsic clearance, human liver microsomes [mL/min/kg] | intrinsic clearance, rat liver microsomes [mL/min/kg] | aqueous solubility [µg/mL] | fraction unbound, rat plasma | fraction unbound, human plasma |
| --- | --- | --- | --- | --- | --- | --- |
| O=C(NC1CCCC1)C1=CCN(C(=O)C2CC2)C1 | 5.2 | ≤ 4.74 | 37.3 | – | – | – |
| N#CCn1c(C(=O)O)cc2ccccc21 | – | – | – | 41.5 (≈ 207 µM) | – | – |
| Cn1cc(-c2nc(C(F)(F)F)c[nH]2)cn1 | – | – | – | 40.2 (≈ 186 µM) | – | – |
| O=C(Nc1cccc(N2CCNC2=O)c1)C1NCC12CCCC2 (stereo not given) | 22 | ≤ 4.74 | – | – | – | 0.523 |
| Cc1ncsc1-c1cncc(CC2CCCN(C)C2)n1 (stereo not given) | 0.97 | 32 | 108 | – | – | – |
| Cc1cc(C(=O)N2CCS(=O)(=O)CC2)c(C)o1 | – | ≤ 4.74 | ≤ 10.7 | – | – | – |
| O=C(NCC1CCC2(CC1)OCCO2)c1[nH]nc2c1CCCC2 | 5.92 | 6.88 | 1270 | – | – | – |
| NC1CCC(C(=O)N2CCC(c3c[nH]c4ncccc34)CC2)C1 (stereo not given) | 2.66 | ≤ 4.74 | – | – | – | 0.827 |
| O=C1CCC(=O)N1CCN1CCCCc2ccccc21 | 0.651 | 122 | 1470 | 55.8 (≈ 205 µM) | – | – |
| Clc1cnc(Oc2ccc3cn[nH]c3c2)nc1 | – | 12.9 | 27.5 | – | – | – |
| Cc1cc(CN2CCN(c3ncccn3)CC2)on1 | 0.608 | ≤ 4.74 | 91.5 | 36.7 (≈ 141 µM) | – | – |
| Cn1cc(C#N)cc1-c1nc(C2CC2)nn1CCc1ccccc1 | 0.932 | 184 | 1870 | 49.2 (≈ 155 µM) | – | – |
| O=C(CC1CCCC1)NCc1nnc2n1CCC2 | 51.7 | ≤ 4.74 | ≤ 10.7 | 31.5 (≈ 127 µM) | – | – |
| O=C(c1ccco1)N1CCCC(C(=O)N2CCc3ccccc3C2)C1 (stereo not given) | – | – | – | 69.8 (≈ 206 µM) | – | – |
| CCn1cnnc1C1CCCN(c2ncnc3sc(-c4ccccc4)cc23)C1 (stereo not given) | – | – | – | 34.8 (≈ 89 µM) | – | – |
| CCCNC(=O)C1(NCc2cncnc2)CCCCC1 | 7.46 | 43.2 | 127 | – | – | – |
| CCCc1cc(O)nc(SCC(=O)N2CCN(C)CC2)n1 | 23.9 | ≤ 4.74 | ≤ 10.7 | – | – | – |
| O=C(CSc1ncn[nH]1)N(C1CCCCC1)C1CCCCC1 | 2.57 | 120 | 1410 | 35.7 (≈ 111 µM) | – | – |
| O=C1CCCN1CCCN1CCC(n2c(=O)[nH]c3ccccc32)CC1 | – | ≤ 4.74 | 15.7 | 15.9 (≈ 46.4 µM) | – | – |
| CN(C)Cc1ccc(-c2ccccc2C(=O)O)cc1 | – | ≤ 4.74 | ≤ 10.7 | 30.5 (≈ 119 µM) | – | – |
| c1ccc(CNc2nn3nnnc3c3ccccc23)cc1 | 0.624 | – | – | 0.1 (≈ 0.362 µM) | – | – |
| CCc1c(-c2ccccc2)[n+]([O-])c2c([n+]1[O-])CCCCC2 | 2.95 | 8.95 | 43.4 | – | – | – |
| CN1CCC(O)(CNC(=O)C2CCCCCC2)CC1 | 11.2 | ≤ 4.74 | 458 | – | – | – |

Results, then the compound that gave them:

| MDR1-MDCK efflux ratio | intrinsic clearance, human liver microsomes [mL/min/kg] | intrinsic clearance, rat liver microsomes [mL/min/kg] | aqueous solubility [µg/mL] | fraction unbound, rat plasma | fraction unbound, human plasma | SMILES |
| --- | --- | --- | --- | --- | --- | --- |
| 3.34 | 19.2 | 51.7 | 8.44 (≈ 22.4 µM) | – | – | COc1ccc(CN2CCc3nc(-c4cccnc4)nc(O)c3C2)c(C)c1C |
| 2.81 | ≤ 4.74 | 27.3 | 40.8 (≈ 144 µM) | 0.412 | – | O=C(Nc1cccnc1)c1ccnc(NC(=O)C2CC2)c1 |
| 0.57 | 41.9 | 668 | 75.9 (≈ 267 µM) | – | – | O=C(NCc1ncc(-c2ccccc2)o1)C1CCCCC1 |
| – | – | – | 1.75 (≈ 6.07 µM) | – | – | Cc1ccc(C)c(CN2C(=O)C(=O)N(CC(C)C)C2=O)c1 |
| 0.593 | 39.3 | 342 | 24.5 (≈ 94.5 µM) | – | – | Cc1nnsc1CN(C)c1ccc2cc[nH]c2n1 |
| 3.63 | ≤ 4.74 | 51.9 | 32.4 (≈ 130 µM) | – | – | CCc1cnc(CN2C(=O)NC3(CCC3)C2=O)o1 |
| – | ≤ 4.74 | 49.1 | 16.8 (≈ 66.1 µM) | – | – | Cc1ccc(OCc2nc3cc(N)ccc3[nH]2)cc1 |
| 0.236 | 97.4 | 593 | 11.6 (≈ 36.5 µM) | – | – | O=C(CCc1ccc2c(c1)OCO2)Nc1nc2c(s1)CCC2 |
| 0.719 | ≤ 4.74 | 51.6 | 43.4 (≈ 175 µM) | – | – | O=C(NCc1cc(F)cc(F)c1)c1ccccn1 |
| – | 6.7 | ≤ 10.7 | 41.2 (≈ 185 µM) | – | – | Cc1cnn(Cc2cc(F)ccc2F)c1N |
| 0.34 | – | – | – | 0.0151 | 0.0162 | CCn1c(=O)oc2cc(NC(=O)c3ccc(C(C)(C)C)cc3)ccc21 |
| 5.29 | 23.3 | 152 | 22.1 (≈ 73.1 µM) | – | – | CC(/C=C/C(=O)NO)=C\[C@@H](C)C(=O)c1ccc(N(C)C)cc1 |
| 42.6 | 12.4 | 56.3 | – | – | – | CN(C)CC(=O)N1CCC(c2ccc(NC(=O)c3nc(C#N)c[nH]3)c(C3=CCCCC3)c2)CC1 |
| 4.28 | 7.03 | 521 | 18.4 (≈ 56.9 µM) | – | – | CCOC(=O)c1ccc(NC(=O)Cn2cnc3ccccc32)cc1 |
| – | – | – | 0.95 (≈ 2.85 µM) | – | – | O=C(Cc1ccc2c(c1)CCCC2)Nc1ccc(-n2cnnn2)cc1 |
| 46.8 | 8.66 | 28.4 | – | – | – | CNCc1cc(N(C)C)nc(C2CCCN2C(=O)C2CN(Cc3ccc(Cl)cc3)C2)n1 (stereo not given) |
| – | – | – | 0.32 (≈ 1.07 µM) | – | – | Cc1cnc(NC(=O)Cc2coc3cc(C)c(C)cc23)s1 |
| – | – | – | 40.8 (≈ 201 µM) | – | – | Cn1cc(C(=O)O)c(-c2cccnc2)n1 |
| – | – | – | 26 (≈ 95.1 µM) | – | – | COc1cc(CC(=O)Nc2ccccc2F)ccc1C |
| – | ≤ 4.74 | ≤ 10.7 | 36.3 (≈ 147 µM) | – | – | Cc1ccccc1NC(=O)CN1C(=O)CCC1=O |
| 9.81 | 562 | 2270 | – | – | – | Cc1cc(Nc2ccc(F)cn2)cc(C2CCN(C(=O)CCc3cccc(Cl)c3)C2)n1 (stereo not given) |
| 1.21 | 5.04 | 193 | – | – | – | Cn1ccnc1-c1noc(NCc2ccccc2)n1 |
| – | – | – | 0.5 (≈ 2.18 µM) | – | – | NC(=O)c1sc2cc(F)ccc2c1Cl |
| 0.943 | 71.2 | 1610 | – | 0.129 | 0.152 | Cc1noc(C(C)C)c1C(=O)N1CC(C)OC(c2ccccc2)C1 (stereo not given) |
